Data published in publication PMC8508980, “Design, Synthesis and Anticancer Profile of New 4-(1H-benzo[d]imidazol-1-yl)pyrimidin-2-amine-Linked Sulfonamide Derivatives with V600EBRAF Inhibitory Effect” (International Journal of Molecular Sciences, 2021).

Key:
[1] = system: non-small cell lung cancer cell lines; assay: NCI 60 screen, sub-panel mean; type: cell-based, human; details: NCI-60, non-small cell lung cancer sub-panel
Experimental: Anticancer profiling over a panel of 60 cancer cell lines was carried out at the National Cancer Institute (NCI), Bethesda, Maryland, USA, https://dtp.cancer.gov/discovery_development/nci-60/methodology.htm (Last visit 22 September 2021), using the standard procedure (detailed procedure is located in the Supplementary Information page 50 s).
NCI standard procedure for 60 cell lines assay
The human tumor cell lines of the cancer screening panel are grown in RPMI 1640 mediu m containing 5% fetal bovine serum and 2 mM L-glutamine. For a typical screening experiment, cells are inoculated into 96 well microtiter plates in 100 μL at plating densities ranging from 5,000 to 40,000 cells/well depending on the doubling time of individual cell lines. After cell inoculation, the microtiter plates are incubated at 37° C, 5 % CO2, 95 % air and 100 % relative humidity for 24 h prior to addition of experimental drugs.
After 24 h, two plates of each cell line are fixed in situ with TCA, to represent a measurement of the cell population for each cell line at the time of drug addition (Tz). Experimental drugs are solubilized in dimethyl sulfoxide at 400-fold the desired final maximum test concentration (10 µM) and stored frozen prior to use. At the time of drug addition, an aliquot of frozen concentrate is thawed and diluted to twice the desired final maximum test concentration with co mp lete medium containing 50 μg/ml gentamicin. Additional four, 10-fold or ½ log serial dilutions are made to provide a total of five drug concentrations plus control. Aliquots of 100 μl of these different drug dilutions are added to the appropriate microtiter wells already containing 100 μl of medium, resulting in the required final drug concentrations.
Following drug addition, the plates are incubated for an additional 48 h at 37°C, 5 % CO2, 95 % air, and 100 % relative humidity. For adherent cells, the assay is terminated by the addition of cold TCA. Cells are fixed in situ by the gentle addition of 50 μl of cold 50 % (w/v) TCA (final concentration, 10 % TCA) and incubated for 60 minutes at 4°C. The supernatant is discarded, and the plates are washed five times with tap water and air dried. Sulforhodamine B (SRB) solution (100 μl) at 0.4 % (w/v) in 1 % acetic acid is added to each well, and plates are incubated for 10 minutes at room temperature. After staining, unbound dye is removed by washing five times with 1 % acetic acid and the plates are air dried. Bound stain is subsequently solubilized with 10 mM trizma base, and the absorbance is read on an automated plate reader at a wavelength of 515 nm. For suspension cells, the methodology is the same except that the assay is terminated by fixing settled cells at the bottom of the wells by g ently adding 50 μl of 80 % TCA (final concentration, 16 % TCA). Using the seven absorbance measurements [time zero, (Tz), control growth, (C), and test growth in the presence of drug at the five concentration levels (Ti)], the percentage growth is calculated at each of the drug concentrations levels. Percentage growth inhibition is calculated as:
[(Ti-Tz)/(C-Tz)] x 100 for concentrations for which Ti>/=Tz
[(Ti-Tz)/Tz] x 100 for concentrations for which Ti<Tz.
Three dose response parameters are calculated for each experimental agent. Growth inhibition of […]
resulting in a 50% reduction in the net protein increase (as measured by SRB staining) in control cells during the drug incubation. The drug concentration resulting in total growth inhibition […]
(TGI) is calculated from Ti = Tz.

A498 = assay: NCI 60 cell line screen; type: cell-based; details: Homo sapiens; A498, Renal Cancer; read-out: Percent growth
Outline: (§1)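 Cells grown in RPMI 1640 with 5% FBS were plated 24 h before dosing, then exposed for 48 h at 37 °C to five drug concentrations (maximum 10 µM). Adherent cells were TCA-fixed, suspension cells fixed with 80% TCA. SRB absorbance at 515 nm, relative to time-zero and control plates, gave percent growth and TGI.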

A549/ATCC = assay: NCI 60 cell line screen; type: cell-based; details: Homo sapiens, Non-Small Cell Lung Cancer, read-out: Percent growth
Outline: as §1

ACHN = assay: NCI 60 cell line screen; type: cell-based; details: Homo sapiens, Renal Cancer, read-out: Percent growth
Outline: as §1

BT-549 = assay: NCI 60 cell line screen; type: cell-based; details: Homo sapiens; BT-549, Breast Cancer; read-out: Percent growth
Outline: as §1

COLO 205 = assay: NCI 60 cell line screen; type: cell-based; details: Homo sapiens; COLO 205, Colon Cancer; read-out: Percent growth
Outline: as §1

DU-145 = assay: NCI 60 cell line screen; type: cell-based; details: Homo sapiens; DU-145, Prostate Cancer; read-out: Percent growth
Outline: as §1

HCC-2998 = assay: NCI 60 cell line screen; type: cell-based; details: Homo sapiens; HCC-2998, Colon Cancer; read-out: Percent growth
Outline: as §1

HCT-116 = assay: NCI 60 cell line screen; type: cell-based; details: Homo sapiens; HCT-116, Colon Cancer; read-out: Percent growth
Outline: as §1

LOX IMVI = assay: NCI 60 cell line screen; type: cell-based; details: Homo sapiens, Melanoma, read-out: Percent growth
Outline: as §1

MALME-3M = assay: NCI 60 cell line screen; type: cell-based; details: Homo sapiens, Melanoma, read-out: Percent growth
Outline: as §1

MCF7 = assay: NCI 60 cell line screen; type: cell-based; details: Homo sapiens; MCF7, Breast Cancer; read-out: Percent growth
Outline: as §1

MDA-MB-231/ATCC = assay: NCI 60 cell line screen; type: cell-based; details: Homo sapiens, Breast Cancer, read-out: Percent growth
Outline: as §1

MDA-MB-435 = assay: NCI 60 cell line screen; type: cell-based; details: Homo sapiens; MDA-MB-435, Melanoma; read-out: Percent growth
Outline: as §1

NCI-H322M = assay: NCI 60 cell line screen; type: cell-based; details: Homo sapiens, Non-Small Cell Lung Cancer, read-out: Percent growth
Outline: as §1

OVCAR-3 = assay: NCI 60 cell line screen; type: cell-based; details: Homo sapiens; OVCAR-3, Ovarian Cancer; read-out: Percent growth
Outline: as §1

OVCAR-5 = assay: NCI 60 cell line screen; type: cell-based; details: Homo sapiens; OVCAR-5, Ovarian Cancer; read-out: Percent growth
Outline: as §1

SF-268 = assay: NCI 60 cell line screen; type: cell-based; details: Homo sapiens; SF-268, CNS-Cancer; read-out: Percent growth
Outline: as §1

SF-539 = assay: NCI 60 cell line screen; type: cell-based; details: Homo sapiens; SF-539, CNS-Cancer; read-out: Percent growth
Outline: as §1

SK-MEL-2 = assay: NCI 60 cell line screen; type: cell-based; details: Homo sapiens; SK-MEL-2, Melanoma; read-out: Percent growth
Outline: as §1

SK-OV-3 = assay: NCI 60 cell line screen; type: cell-based; details: Homo sapiens; SK-OV-3, Ovarian Cancer; read-out: Percent growth
Outline: as §1

SN12C = assay: NCI 60 cell line screen; type: cell-based; details: Homo sapiens, Renal Cancer, read-out: Percent growth
Outline: as §1

SW-620 = assay: NCI 60 cell line screen; type: cell-based; details: Homo sapiens; SW-620, Colon Cancer; read-out: Percent growth
Outline: as §1

SMILES	mean percent inhibition [1] [%]	activity at 10 µM (A498) [%]	activity at 10 µM (A549/ATCC) [%]	activity at 10 µM (ACHN) [%]	activity at 10 µM (BT-549) [%]	activity at 10 µM (COLO 205) [%]	activity at 10 µM (DU-145) [%]	activity at 10 µM (HCC-2998) [%]	activity at 10 µM (HCT-116) [%]	activity at 10 µM (LOX IMVI) [%]	activity at 10 µM (MALME-3M) [%]	activity at 10 µM (MCF7) [%]	activity at 10 µM (MDA-MB-231/ATCC) [%]	activity at 10 µM (MDA-MB-435) [%]	activity at 10 µM (NCI-H322M) [%]	activity at 10 µM (OVCAR-3) [%]	activity at 10 µM (OVCAR-5) [%]	activity at 10 µM (SF-268) [%]	activity at 10 µM (SF-539) [%]	activity at 10 µM (SK-MEL-2) [%]	further results
Cc1ccc(S(=O)(=O)NCCNc2nccc(-n3cnc4ccccc43)n2)cc1 [12g, N-(2-((4-(1H-benzo [d]imidazol-1-yl)pyrimidin-2-yl)amino)ethyl)-4-methyl benzenesulfonamide]	30	62.1	82.4	73	63.7	86.8	89.3	93.1	64.1	75.2	90.2	67.9	62.5	84.1	94.4	82	87.8	68.8	79.7	87.7	activity at 10 µM (SK-OV-3): 79.5%; activity at 10 µM (SN12C): 79%; activity at 10 µM (SW-620): 90.8%
O=S(=O)(NCCCNc1nccc(-n2cnc3ccccc32)n1)c1ccc(C(F)(F)F)cc1 [12l, N-(3-((4-(1H-benzo [d]imidazol-1-yl)pyrimidin-2-yl)amino)propyl)-4-(trifluoromethyl) benzenesulfonamide]	30	55.3	79	79	62.9	78.2	83.5	84.8	65.6	72.3	94	65.5	68.7	72.1	89.9	81.2	87.2	66.5	74.5	91	activity at 10 µM (SK-OV-3): 80.3%; activity at 10 µM (SN12C): 80.5%; activity at 10 µM (SW-620): 99.5%
